In US11229714B2, “Electrochemical reduction or prevention of infections” (WASHINGTON STATE UNIVERSITY, priority 2015, dated 2022):

What was measured:
[1] = system: Acinetobacter baumannii biofilms; assay: In vitro A. baumannii biofilm viable cell count (CFU, drop-plate); type: cell-based
Method: Acinetobacter baumannii biofilms were used to test efficacy of the e-scaffold. An overnight culture of Acinetobacter baumannii (ATCC #BAA-1605) was grown in full-strength Luria Broth (LB) medium (Sigma-Aldrich, catalog #L3522) and was re-suspended in 5% LB medium (OD600≈0.5). […] After 2 hours of initial attachment, the bacterial suspension was removed and the biofilms were washed twice to remove planktonic cells and then refreshed with 5% LB medium. Biofilms were allowed to develop for 24 hours. Before the e-scaffolds were applied, the bulk liquid was refreshed.
E-scaffolds were sterilized by autoclaving (121° C., 15 min) and were saturated with sterilized liquid medium before being applied to existing Acinetobacter baumannii biofilms. The scaffolds were then polarized at −600 mVAg/AgCl for 24 hours, after which biofilms were processed for the quantification of viable cells by scraping the e-scaffold and biofilms from the glass surfaces of the petri dish into 5 ml of LB medium (1 g/L). The suspensions were centrifuged, and the resulting cell pellet was re-suspended in 1 ml of LB medium (1 g/L), and serial dilutions were prepared. Colony-forming units (“CFU”) were counted using a drop-plate count method. […]
To test whether H2O2 can remove biofilms in vitro and from infected porcine explants, exogenous H2O2 (VWR, Catalog #RC3819-16, adjusted to a concentration similar to that produced by the e-scaffold) was added to Acinetobacter baumannii biofilms. […] First, the biofilms were exposed to the total calculated amount of H2O2 in a single administration. […]
Catalase (Sigma-Aldrich, catalog #C1345) was added to an Acinetobacter baumannii biofilm and measured protection against H2O2 produced by the e-scaffold. Prior to addition, the H2O2 decomposition rate per unit of catalase was determined from H2O2 microelectrode measurements. The total amount of catalase required per min for complete decomposition of H2O2 was calculated based on the rate of H2O2 generation by the e-scaffold. To ensure complete H2O2 decomposition, catalase was added in excess of the calculated value (5×=0.05 mg/ml). […]

[2] = system: P. aeruginosa PAO1 biofilm cells; assay: SEM imaging of biofilm cells; type: cell-based, Pseudomonas aeruginosa; conditions: 24 h treatment
Method: For SEM imaging, biofilms were grown for 24 hours on UV-sterilized, 0.22 μm type GV membrane filters placed in sterile 6-well plates. Exogenous H2O2 was added continuously at an average 0.008 mmol/h for 24 hours to mimic the e-scaffold generated H2O2 treatment. After treatment for 24 hours, both e-scaffolds and membrane filters with biofilms were aseptically collected from the untreated, e-scaffold treated, and exogenous H2O2 treated wells. The membrane filters and e-scaffolds were fixed overnight with 2.5% glutaraldehyde and 2% paraformaldehyde in 0.1 M phosphate buffer, followed by rinsing with 0.1 M phosphate buffer. The membranes and e-scaffolds were then dehydrated gradually by being washed sequentially with 10%, 30%, 50%, 70%, and 95% alcohol (10 min each) and 100% alcohol (3×10 min each). Samples were then sputter-coated with gold prior to field emission in-lens scanning electron microscopy imaging.

[3] = system: P. aeruginosa PAO1 biofilm cells; assay: Intracellular hydroxyl free radical formation (HPF fluorescence); type: cell-based, Pseudomonas aeruginosa; conditions: treated vs untreated biofilm cells
Method: Intracellular hydroxyl free radical (OH•) formation was detected using 5 μM of a fluorescent reporter dye, 3′-(p-hydroxyphenyl fluorescein) (HPF). […] The samples were centrifuged (10,000×g for 10 min), and then the medium was replaced with a final concentration of 5 μM HPF prepared in 500 μL of 0.1 M PBS. After staining in the dark at room temperature for 15 minutes, samples were centrifuged at 10,000×g for 10 min. Supernatant was removed, and cells were rinsed and re-suspended with PBS. An aliquot (100 μL) was added to each well in a 96-well plate, and fluorescence intensity was quantified using a microplate reader with excitation at 490 and emission at 515 nm. For the OH• formation assays, fluorescence was estimated as ((Fluorescence with dye− Fluorescence without dye)/(Fluorescence without dye))*(100).

[4] = system: P. aeruginosa PAO1 planktonic culture; assay: Dose-dependent killing curve for ciprofloxacin, stationary phase planktonic culture; type: cell-based, Pseudomonas aeruginosa; conditions: 0-200 μg/ml, 200× of MIC
Method: (§1) To identify and isolate P. aeruginosa PAO1 persister cells, planktonic culture was grown to the stationary phase and the dose-dependent killing curve for ciprofloxacin (0-200 μg/ml) was investigated. […] Assessments were then performed on biofilms regrown from cells recovered after no treatment (“untreated biofilms”), cells recovered after e-scaffold treatment (“e-scaffold treated biofilm”), and “persister cells” that were isolated from biofilms treated with 200 μg/ml ciprofloxacin for 3.5 hours. The treated samples were washed with 0.9% NaCl and suspended in LB to isolate persister cells from ciprofloxacin-treated biofilms for subsequent experiments as described in more detail below.

[5] = system: P. aeruginosa PAO1 persister cells; assay: Treatment of persister cells isolated from ciprofloxacin-treated biofilms (CFU); type: cell-based, Pseudomonas aeruginosa
Method: as §1
The total number of viable cells was determined for ciprofloxacin-treated and untreated biofilms using the modified drop-plate cell counting method. Remaining persister cells were then exposed to either 200 μg/ml ciprofloxacin or e-scaffold treatment for 6 hours. Final CFU values were then determined.

[6] = system: P. aeruginosa PAO1 biofilms; assay: Tobramycin susceptibility of P. aeruginosa PAO1 biofilms with or without e-scaffold (CFU); type: cell-based, Pseudomonas aeruginosa; conditions: biofilms regrown from persister cells, 10 μg/ml tobramycin, no e-scaffold
Method: For the following experiments, 20 g/L (1×) Luria broth (LB) medium (Sigma-Aldrich, catalog #L3522) was used to grow P. aeruginosa PAO1 cultures overnight, and 1 g/L (0.05×) LB was used as the growth medium for biofilms. Tobramycin (Sigma Aldrich, catalog #T4014) and ciprofloxacin (Sigma Aldrich, catalog #17850) solutions were diluted in 1 g/L (0.05×) LB for antibiotic susceptibility experiments and persister cell isolation, respectively. Minimum inhibitory concentrations (MICs) were determined for both antibiotics following the Clinical and Laboratory Standards Institute (CLSI) protocol. Other compounds used include 3′-p-hydroxyphenyl fluorescein dye (Invitrogen, catalog #H36004), propidium iodide (Invitrogen, catalog #L-7012), thiourea (AK Scientific, Inc., catalog #S726), and H2O2 (VWR, Catalog #RC3819-16).
Frozen stocks of P. aeruginosa PAO1 were cultured overnight in LB at 37° C. on a rotating table. For biofilm experiments, overnight culture was adjusted to OD600≈0.5 in LB and used as an inoculum. 2 ml of culture was used to inoculate sterile glass bottom petri dishes and allowed to form biofilms for 24 hours. Such one day-old biofilms were treated with e-scaffolds for 24 hours. Untreated and e-scaffold treated biofilm cells were then washed twice to remove loosely attached cells. Remaining cells were recovered for antibiotic susceptibility testing. […]

[7] = system: P. aeruginosa PAO1 biofilms; conditions: general statement, no e-scaffold; cited from earlier work

catalase
effect on biofilm ([1]; catalase itself (0.05 mg/ml)): no significant effect

OO [H2O2, hydrogen peroxide]
cell morphology in SEM images [2]: membrane-compromised cells | HPF fluorescence (OH• formation) [3]: increased fluorescence | reduction in Acinetobacter baumannii CFU ([1]; 45 mM H2O2 in a single administration, vs control without H2O2): ~3 log | reduction in bacterial counts ([1]; equivalent concentration of H2O2 delivered continuously over 24 hours): ~2 log

O=C(O)c1cn(C2CC2)c2cc(N3CCNCC3)c(F)cc2c1=O [ciprofloxacin]
ciprofloxacin concentration above which the surviving subpopulation plateaus [4]: above 50 μg/ml | change of final population of persister cells ([5]; additional 6 hours of 200 μg/ml ciprofloxacin treatment): did not change | share of total biofilm cells belonging to the persister population ([5]; biofilms treated with 200 μg/ml ciprofloxacin for 3.5 hours): about 0.31%

NC[C@H]1O[C@H](O[C@H]2[C@H](O)[C@@H](O[C@H]3O[C@H](CO)[C@@H](O)[C@H](N)[C@H]3O)[C@H](N)C[C@@H]2N)[C@H](N)C[C@@H]1O [tobramycin]
reduction in viable cells [6]: 1.2±0.16 log | tobramycin typically required for P. aeruginosa PAO1 biofilm treatment [7]: > 500 × of MIC
